The values below come from US20250304921A1 (University of Pittsburgh-Of The Commonwealth System of …, priority 2022, published 2025).

The test system of assay [1] is rFeMV^US5Venus (6) or rFeMV^US5Venus (3). Type of assay: cell-based, Feline morbillivirus (FeMV).
For assay [2], the system named is rFeMV^US5Venus (6). Type of assay: cell-based, Feline morbillivirus (FeMV).
Assay [3] relates to rFeMV^US5Venus (6). It counts as cell-based, Feline morbillivirus (FeMV). This is another data set of the same source.
The next assay has as its system FeMV^US5F. Briefly: Western blot of AU1-tagged F glycoprotein processing (F0 to F1) in transfected cells. The conditions noted are these: E64d 20 μM vs DMSO; transfected CRFK cells, lysates at 2 d.p.t. It counts as cell-based, Feline morbillivirus (FeMV). As to the method: (§1) CRFK cells were transfected with pCG-FeMV^US5F, pCG-FeMV^US5FAU1, or pCG-FeMV^US5FPB-AU1 in the absence or presence of the pan-cysteine protease inhibitor E64d. At 2 d.p.t. cell lysates were prepared. Medium was removed and the monolayers were rinsed twice with 1 ml cold D-PBS. Cold 1× RIPA buffer (Boston bioproducts; 200 μl) containing 1× HALT protease inhibitors (Thermo Fisher Scientific) was added to the monolayers and incubated on ice for 15 minutes. Monolayers were scraped into the buffer and transferred to cold 1.5 ml tubes. Lysates were incubated on ice for 30 minutes with intermittent vortexing before being centrifuged at 14,000 g for 15 minutes at 4° C. to pellet nuclei. The cleared supernatants were used to prepare samples for polyacrylamide gel electrophoresis (PAGE) by adding appropriate volumes of 4× NUPAGE™ LDS sample loading buffer and ×10 NUPAGE™ reducing agent (both Thermo Fisher Scientific Scientific). PAGE samples were heated to 70° C. for 10 minutes before separation of proteins on a 10% NUPAGE™ bis-TRIS polyacrylamide gel using the Xcell SureLock Mini-Cell system (Thermo Fisher Scientific Scientific) according to manufacturer's instructions. An aliquot of SeeBlue Plus2 Protein Standard was included on each gel to allow estimation of protein sizes. […]

Another assay has as its system FeMV^US5FPB. The description is as above. Type of assay: cell-based, Feline morbillivirus (FeMV). The conditions noted are these: E64d 20 μM vs DMSO; transfected CRFK cells, lysates at 2 d.p.t. As to the method:
as §1

For assay [4], the system named is NiV^MA F and G glycoproteins. It counts as cell-based, Nipah virus (NiV).
Assay [5] has as its system FeMV F and H glycoproteins. Type of assay: cell-based, Feline morbillivirus (FeMV).
Another assay deals with FeMV^US5FPB protein. Type of assay: cell-based, Feline morbillivirus (FeMV).
Assay [6] relates to CDV^RI F and H glycoproteins. It counts as cell-based.
The test system of assay [7] is MV^KS F and H glycoproteins. Type of assay: cell-based.
Another assay concerns FeMV. The conditions noted are these: trypsin added during virus titration in CRFK cells; cited from earlier work.

Entries after “also recorded” stand apart in the source; their conditions may differ. Residues, ends and D or L forms follow the SMILES beside them. *: point of attachment. Decanoyl = CCCCCCCCCC(=O)*; CH2Cl = ClC*

As for `CCCNC(=O)[C@H]1O[C@@H]1C(=O)N[C@H](C(=O)N1CCC[C@H]1C(=O)OC)[C@@H](C)CC` [CA-074Me], in assay [1], the infectious virus titers entry was “reduced the infectious virus titers by two logs”. For the same molecule, in the assay on rFeMV^US5Venus (6) [2], the “cell-to-cell fusion and spread by rFeMV^US5Venus (6) and rFeMV^US5Venus (3)” value is “prevented cell-to-cell fusion and spread”; the “spread of rFeMV^US5Venus (6) infection” value is “limited to single cells with no spread from the initially infected cell”; the “virus entry and initial replication in cells” value is “can enter and initially replicate in cells equivalently to the no inhibitor control”. The “rFeMV^US5-induced cell-to-cell fusion (luciferase activity)” value (“rFeMV^US5-induced cell-to-cell fusion” for short) with rFeMV^US5Venus (6) [3] is on record as “reduced; also recorded: inhibited”.

With `CCOC(=O)[C@H]1O[C@@H]1C(=O)N[C@@H](CC(C)C)C(=O)NCCC(C)C` [E64d], the “FeMV^US5F processing (F0 to F1 subunit)” value in the assay on FeMV^US5F was “prevented FeMV^US5F processing”. Besides, the “FeMV^US5FPB (polybasic cleavage signal) F0 processing” value in the assay with FeMV^US5FPB was “no longer prevented F0 glycoprotein processing”. The “NiV^MA glycoprotein-induced fusion” value in assay [4] is “significantly reduced”. For the same molecule, the infectious virus titers entry in assay [1] is on record as “reduced the infectious virus titers by two logs”. For the same molecule, in assay [5], the FeMV glycoprotein-induced fusion result was “significantly reduced; also recorded: inhibited”. Moreover, in the assay on rFeMV^US5Venus (6) [2], the “cell-to-cell fusion and spread by rFeMV^US5Venus (6) and rFeMV^US5Venus (3)” value was “prevented cell-to-cell fusion and spread”; the “spread of rFeMV^US5Venus (6) infection” value was “limited to single cells with no spread from the initially infected cell”; the “virus entry and initial replication in cells” value was “can enter and initially replicate in cells equivalently to the no inhibitor control”. Also, in the assay with FeMV^US5FPB protein, the “fusion activity with FeMV^US5FPB protein” value is reported as “no longer affected the fusion activity”. The “rFeMV^US5-induced cell-to-cell fusion” value in the assay with rFeMV^US5Venus (6) [3] is listed as “reduced”.

Turning to `CCCCCCCCCC(=O)N[C@@H](CCCN=C(N)N)C(=O)N[C@H](C(=O)N[C@@H](CCCCN)C(=O)N[C@@H](CCCN=C(N)N)C(=O)CCl)C(C)C` [furin inhibitor I] (Decanoyl-RVKR-CH2Cl), the “CDV^RI glycoprotein-induced fusion” value in [6] is on record as “reduced”. The “MV^KS glycoprotein-induced fusion” value in [7] is “reduced”. For the same molecule, the FeMV glycoprotein-induced fusion entry in assay [5] is on record as “unaffected”. Further, the “spread of rFeMV^US5Venus (6) infection” value in the assay with rFeMV^US5Venus (6) [2] is listed as “had spread significantly”. In addition, the “fusion activity with FeMV^US5FPB protein” value in the assay with FeMV^US5FPB protein is given as “significantly reduced fusion”. Also, the “rFeMV^US5-induced cell-to-cell fusion” value in the assay with rFeMV^US5Venus (6) [3] is given as “no difference in luciferase activity”.

B1: trypsin (protein, UniProt P00760 24-246, looked up)
Serine protease 1: IVGGYTCGANTVPYQVSLNSGYHFCGGSLINSQWVVSAAHCYKSGIQVRLGEDNINVVEGNEQFISASKSIVHPSYNSNTLNNDIMLIKLKSAASLNSRVASISLPTSCASAGTQCLISGWGNTKSSGTSYPDVLKCLKAPILSDSSCKSAYPGQITSNMFCAGYLEGGKDSCQGDSGGPVVCSGKLQGIVSWGSGCAQKNKPGVYTKVCNYVSWIKQTIASN
notes: exogenous protease added to fusion assays or virus titration
As for B1, the “effect of trypsin on resultant virus titers” value with FeMV is reported as “did not augment the resultant virus titers”. For the same molecule, in assay [5], the “effect of exogenous trypsin on FeMV glycoprotein-induced cell-to-cell fusion” value was “did not enhance fusion”.
